According to US8158628B2, “Sulfonylated 1,2,3,4-tetrahydropyrrolo[1,2-a]pyrazine compounds and their use as pharmaceuticals” (Gruenenthal GmbH, priority 2009, dated 2012):

Assays:
[1] = biological target: T1, B1R of the rat (Rattus norvegicus, UniProt P97583); experiment: FLIPR Ca2+ functional assay, B1R antagonism, rat B1R in CHO K1 cells; assay type: cell-based; details: test substance 10 μM; rB1R CHO K1 cells; agonist Des-Arg9 bradykinin at EC80; % of maximum achievable inhibition
T1 construct: expressed in transfected cells; host or cells: CHO K1 cells (Chinese hamster ovary), stably transfected
T1 sequence (P97583 1-337): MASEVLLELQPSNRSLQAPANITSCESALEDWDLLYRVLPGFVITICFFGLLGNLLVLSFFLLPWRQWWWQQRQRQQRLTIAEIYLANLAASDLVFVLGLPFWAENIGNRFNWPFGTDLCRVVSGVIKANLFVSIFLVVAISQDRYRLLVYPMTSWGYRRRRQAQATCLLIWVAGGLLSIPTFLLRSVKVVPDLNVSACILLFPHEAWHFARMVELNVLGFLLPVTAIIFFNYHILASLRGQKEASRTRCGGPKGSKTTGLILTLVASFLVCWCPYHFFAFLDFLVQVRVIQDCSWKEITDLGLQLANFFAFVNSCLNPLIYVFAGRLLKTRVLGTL
Method in brief: (§1)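 IC50 values come from varied compound concentrations applied 10-20 min before an EC80 agonist challenge, with Des-Arg9 bradykinin for rat and Lys-Des-Arg9 bradykinin for human receptor. Ca2+ influx in Fluo-4-loaded CHO K1 transfectants was measured by FLIPR peak fluorescence. Data are % inhibition vs maximum, n=2-3, N>=2.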

[2] = biological target: T2, human B1R (Homo sapiens, UniProt P46663); experiment: FLIPR Ca2+ functional assay, B1R antagonism, human B1R in CHO K1 cells; assay type: cell-based; details: test substance 10 μM; hB1R CHO K1 cells; agonist Lys-Des-Arg9 bradykinin at EC80; % of maximum achievable inhibition
T2 construct: expressed in transfected cells; host or cells: CHO K1 cells (Chinese hamster ovary), stably transfected
T2 sequence (P46663 1-353): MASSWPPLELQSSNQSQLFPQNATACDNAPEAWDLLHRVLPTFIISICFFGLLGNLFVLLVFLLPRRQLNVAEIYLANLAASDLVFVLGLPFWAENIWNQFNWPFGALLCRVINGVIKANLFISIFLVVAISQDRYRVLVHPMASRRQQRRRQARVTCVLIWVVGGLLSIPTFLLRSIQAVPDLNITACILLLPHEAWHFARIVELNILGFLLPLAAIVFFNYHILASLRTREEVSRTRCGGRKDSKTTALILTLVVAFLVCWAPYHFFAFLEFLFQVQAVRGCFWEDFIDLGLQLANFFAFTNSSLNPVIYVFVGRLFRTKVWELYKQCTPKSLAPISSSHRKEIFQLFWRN
Method in brief: as §1

Row | inhibition at 10 µM [1] [%] | inhibition at 10 µM [2] [%] | SMILES
1 | 103 | 99.5 | COc1ccc2cc(S(=O)(=O)N3CCn4cccc4C3CC(=O)N(C)C3CCc4cc(CN5CCCCC5)ccc4C3)ccc2c1 (stereo not shown) [Example 43, 2-[2-[(6-Methoxy-naphthalen-2-yl)sulfonyl]-1,2,3,4-tetrahydro-pyrrolo[1,2-a]pyrazin-1-yl]-N-methyl-N-[6-(piperidin-1-yl-methyl)-1,2,3,4-tetrahydro-naphthalen-2-yl]-acetamide]
2 | 106 | 99.9 | O=C(CC1c2cccn2CCN1S(=O)(=O)c1cccc(Cl)c1)NC1CCc2cc(CN3CCCCC3)ccc2C1 (stereo not shown) [Example 47, 2-(2-(3-chlorophenylsulfonyl)-1,2,3,4-tetrahydropyrrolo[1,2-a]-pyrazin-1-yl)-N-(6-(piperidin-1-ylmethyl)-1,2,3,4-tetrahydronaphthalen-2-yl)-acetamide]
3 | 105 | 99.6 | COc1ccc2cc(S(=O)(=O)N3CCn4cccc4C3CC(=O)NC3Cc4ccc(CN5CCCCC5)cc4C3)ccc2c1 (stereo not shown) [Example 48, 2-(2-(6-methoxynaphthalen-2-ylsulfonyl)-1,2,3,4-tetrahydropyrrolo-[1,2-a]pyrazin-1-yl)-N-(5-(piperidin-1-ylmethyl)-2,3-dihydro-1H-inden-2-yl)-acetamide]
4 | 100 | 99.9 | Cc1ccc(S(=O)(=O)N2CCn3cccc3C2CC(=O)NC2CCc3cc(CN4CCCC4)ccc3C2)cc1Cl (stereo not shown) [Example 49, 2-[2-[(3-Chloro-4-methyl-phenyl)sulfonyl]-1,2,3,4-tetrahydro-pyrrolo[1,2-a]pyrazin-1-yl]-N-[6-(pyrrolidin-1-yl-methyl)-1,2,3,4-tetrahydro-naphthalen-2-yl]-acetamide]
5 | 99.5 | 99.7 | Cc1ccc(S(=O)(=O)N2CCn3cccc3C2CC(=O)NC2CCc3cc(CN4CCCCC4)ccc3C2)cc1Cl (stereo not shown) [Example 50, 2-[2-[(3-Chloro-4-methyl-phenyl)sulfonyl]-1,2,3,4-tetrahydro-pyrrolo[1,2-a]pyrazin-1-yl]-N-[6-(piperidin-1-yl-methyl)-1,2,3,4-tetrahydro-naphthalen-2-yl]-acetamide]
6 | 103 | 96 | Cc1ccc(S(=O)(=O)N2CCn3cccc3C2CC(=O)NC2CCc3cc(CN4CCCc5ccccc54)ccc3C2)cc1Cl (stereo not shown) [Example 52, 2-[2-[(3-Chloro-4-methyl-phenyl)sulfonyl]-1,2,3,4-tetrahydro-pyrrolo[1,2-a]pyrazin-1-yl]-N-[6-(1,2,3,4-tetrahydro-quinolin-1-yl-methyl)-1,2,3,4-tetrahydro-naphthalen-2-yl]-acetamide]
7 | 102 | 99 | O=C(CC1c2cccn2CCN1S(=O)(=O)c1cccc(C(F)(F)F)c1)NC1CCCc2cc(CN3CCOCC3)ccc21 (stereo not shown) [Example 53, N-[6-(Morpholin-4-yl-methyl)-1,2,3,4-tetrahydro-naphthalen-1-yl]-2-[2-[[3-(trifluoromethyl)phenyl]sulfonyl]-1,2,3,4-tetrahydro-pyrrolo[1,2-a]pyrazin-1-yl]-acetamide]
8 | 99.4 | 99.8 | Cc1ccc(S(=O)(=O)N2CCn3cccc3C2CC(=O)NC2CCCc3cc(CN4CCN(C)CC4)ccc32)cc1Cl (stereo not shown) [Example 55, 2-[2-[(3-Chloro-4-methyl-phenyl)sulfonyl]-1,2,3,4-tetrahydro-pyrrolo[1,2-a]pyrazin-1-yl]-N-[6-[(4-methyl-piperazin-1-yl)-methyl]-1,2,3,4-tetrahydro-naphthalen-1-yl]-acetamide]
9 | 98 | 99.7 | Cc1ccc(S(=O)(=O)N2CCn3cccc3C2CC(=O)NC2CCCc3cc(CN4CCCCC4)ccc32)cc1Cl (stereo not shown) [Example 56, 2-[2-[(3-Chloro-4-methyl-phenyl)sulfonyl]-1,2,3,4-tetrahydro-pyrrolo[1,2-a]pyrazin-1-yl]-N-[6-(piperidin-1-yl-methyl)-1,2,3,4-tetrahydro-naphthalen-1-yl]-acetamide]
10 | 101 | 98.5 | Cc1ccc(S(=O)(=O)N2CCn3cccc3C2CC(=O)NC2CCCc3cc(CN4CCOCC4)ccc32)cc1Cl (stereo not shown) [Example 57, 2-[2-[(3-Chloro-4-methyl-phenyl)sulfonyl]-1,2,3,4-tetrahydro-pyrrolo[1,2-a]pyrazin-1-yl]-N-[6-(morpholin-4-yl-methyl)-1,2,3,4-tetrahydro-naphthalen-1-yl]-acetamide]
11 | 76.2 | 99.8 | CN1CCN(Cc2ccc3c(c2)CCCC3NC(=O)CC2c3cccn3CCN2S(=O)(=O)c2cccc(C(F)(F)F)c2)CC1 (stereo not shown) [Example 59, N-[6-[(4-Methyl-piperazin-1-yl)-methyl]-1,2,3,4-tetrahydro-naphthalen-1-yl]-2-[2-[[3-(trifluoromethyl)phenyl]sulfonyl]-1,2,3,4-tetrahydro-pyrrolo[1,2-a]pyrazin-1-yl]-acetamide]

Continued, molecule first:

Row | SMILES | inhibition at 10 µM [1] [%] | inhibition at 10 µM [2] [%]
12 | COc1cc(C)c(S(=O)(=O)N2CCn3cccc3C2COCC(=O)N2CCC(N3CC4CC3CN4C)CC2)c(C)c1 (stereo not shown) [Example 40, 2-[[2-[(4-Methoxy-2,6-dimethyl-phenyl)sulfonyl]-1,2,3,4-tetrahydro-pyrrolo[1,2-a]pyrazin-1-yl]-methoxy]-1-[4-(3-methyl-3,6-diazabicyclo[2.2.1]heptan-6-yl)-piperidin-1-yl]-ethanone] | 94.9 | 99.6
13 | COc1ccc2cc(S(=O)(=O)N3CCn4cccc4C3CC(=O)NCCc3ccc(C4=NCCN4)cc3)ccc2c1 (stereo not shown) [Example 41, N-[2-[4-(4,5-Dihydro-1H-imidazol-2-yl)-phenyl]-ethyl]-2-[2-[(6-methoxy-naphthalen-2-yl)sulfonyl]-1,2,3,4-tetrahydro-pyrrolo[1,2-a]pyrazin-1-yl]-acetamide] | 103 | 100
14 | Cc1ccc(S(=O)(=O)N2CCn3cccc3C2CC(=O)N[C@@H]2CCCc3cc(CNC(C)(C)C)ccc32)cc1 (stereo partly drawn) [Example 42, N-[(1R)-6-[(tert-Butylamino)-methyl]-1,2,3,4-tetrahydro-naphthalen-1-yl]-2-[2-(p-tolylsulfonyl)-1,2,3,4-tetrahydro-pyrrolo[1,2-a]pyrazin-1-yl]-acetamide] | 107 | 99.9
15 | Cc1ccc(S(=O)(=O)N2CCn3cccc3C2CC(=O)N[C@@H]2CCCc3cc(CN4CCC(F)CC4)ccc32)cc1 (stereo partly drawn) [Example 44, N-[(1R)-6-[(4-Fluoro-piperidin-1-yl)-methyl]-1,2,3,4-tetrahydro-naphthalen-1-yl]-2-[2-(p-tolylsulfonyl)-1,2,3,4-tetrahydro-pyrrolo[1,2-a]pyrazin-1-yl]-acetamide] | 104 | 99.3
16 | Cc1ccc(S(=O)(=O)N2CCn3cccc3C2CC(=O)N[C@@H]2CCCc3cc(CNCC(F)(F)F)ccc32)cc1 (stereo partly drawn) [Example 45, 2-(2-Tosyl-1,2,3,4-tetrahydropyrrolo[1,2-a]pyrazin-1-yl)-N—((R)-6-((2,2,2-trifluoroethylamino)methyl)-1,2,3,4-tetrahydronaphthalen-1-yl)acetamide] | 64 | 50.6
17 | Cc1ccc(S(=O)(=O)N2CCn3cccc3C2CC(=O)N[C@H](C)c2ccc(CNC(C)(C)C)cc2)cc1 (stereo partly drawn) [Example 46, N-[(1R)-1-[4-[(tert-Butylamino)-methyl]-phenyl]-ethyl]-2-[2-(p-tolylsulfonyl)-1,2,3,4-tetrahydro-pyrrolo[1,2-a]pyrazin-1-yl]-acetamide] | 29 | 55.8
18 | Cc1ccc(S(=O)(=O)N2CCn3cccc3C2CC(=O)NC2CCc3cc(CNCc4ccccc4)ccc3C2)cc1Cl (stereo not shown) [Example 51, N-[6-[(Benzylamino)-methyl]-1,2,3,4-tetrahydro-naphthalen-2-yl]-2-[2-[(3-chloro-4-methyl-phenyl)sulfonyl]-1,2,3,4-tetrahydro-pyrrolo[1,2-a]pyrazin-1-yl]-acetamide] | 103 | 99.5
19 | Cc1ccc(S(=O)(=O)N2CCn3cccc3C2CC(=O)NC2CCCc3cc(CN4CCOCC4)ccc32)cc1 (stereo not shown) [Example 54, N-[6-(Morpholin-4-yl-methyl)-1,2,3,4-tetrahydro-naphthalen-1-yl]-2-[2-(p-tolylsulfonyl)-1,2,3,4-tetrahydro-pyrrolo[1,2-a]pyrazin-1-yl]-acetamide] | 100 | 99
20 | Cc1ccc(S(=O)(=O)N2CCn3cccc3C2CC(=O)NC2CCc3cc(CN(C)C)ccc3C2)cc1 (stereo not shown) [Example 58, N-[6-(Dimethylaminomethyl)-1,2,3,4-tetrahydro-naphthalen-2-yl]-2-[2-(p-tolylsulfonyl)-1,2,3,4-tetrahydro-pyrrolo[1,2-a]pyrazin-1-yl]-acetamide] | 103 | 100
